# System: sheep body lice (Bovicola ovis), diazinon resistant
# Test: Off-shears/short wool lice efficacy study, single subcutaneous dose, Merino sheep
# Format: in vivo
# Details: for Sheep Body Lice Efficacy Based on Geometric Means Day 7: Day 7 post-treatment; for Sheep Body Lice Efficacy Based on Geometric Means Day 14: Day 14 post-treatment; for Sheep Body Lice Efficacy Based on Geometric Means Day 21: Day 21 post-treatment; for Sheep Body Lice Efficacy Based on Geometric Means Day 41/42: Day 41/42 post-treatment; for Sheep Body Lice Efficacy Based on Geometric Means Day 84: Day 84 post-treatment; for Sheep Body Lice Efficacy Based on Geometric Means Day 140: Day 140 post-treatment
# Method: In this study the efficacy of fluralaner when administered once subcutaneously at doses of 1 and 2 mg/kg body weight within 1 week prior to shearing, within 24 hours after shearing and 6 weeks after shearing against sheep body lice (Bovicola ovis) infestation on Merino sheep was evaluated.
# Fluralaner was administered to sheep in Groups 2 and 3 seven days pre-shearing, Groups 4 and 5 within 24 hours after shearing and Groups 6 and 7 forty-two days post-shearing at either 1 mg/kg (Group 2, 4 and 6) or 2 mg/kg (Group 3, 5 and 7). Group 1 was left untreated as a negative control. All sheep were shorn on Day 0.
# Lice counts were conducted on all sheep on Day −8 to −7 for allocation. Pre-treatment lice counts were conducted on Groups 2 and 3 on Day −8 to −7 (i.e. allocation counts), on Group 4 and 5 on Day −1 (pre-shearing) and on Group 6 and 7 on Day 41 (post-shearing). Post-treatment lice counts were conducted 7, 14, 21, 42, 84 and 140 days±1-day post-treatment. Group 1 was counted on each day that a lice count was conducted on a treated group for comparison purposes. Lice counts were performed as described in Example 1.
# [1] = 1 mg/kg s.c., treated 7 days pre-shearing
# [2] = 1 mg/kg s.c., treated 42 days post-shearing
# [3] = 1 mg/kg s.c., treated within 24 hours after shearing
# [4] = 2 mg/kg s.c., treated 7 days pre-shearing
# [5] = 2 mg/kg s.c., treated 42 days post-shearing
# [6] = 2 mg/kg s.c., treated within 24 hours after shearing
smiles,measurement,setting,value
"Cc1cc(C2=NOC(c3cc(Cl)cc(Cl)c3)(C(F)(F)F)C2)ccc1C(=O)NCC(=O)NCC(F)(F)F (centres unmarked) [Fluralaner, 4-[5-(3,5-dichlorophenyl)-5-trifluoromethyl-4,5-dihydroisoxazol-3-yl]-2-methyl-N-[(2,2,2-trifluoro-ethylcarbamoyl)-methyl]-benzamide]",Sheep Body Lice Efficacy Based on Geometric Means Day 7,[1],93.9%
same,Sheep Body Lice Efficacy Based on Geometric Means Day 14,[1],97.7%
same,Sheep Body Lice Efficacy Based on Geometric Means Day 21,[1],99.7%
same,Sheep Body Lice Efficacy Based on Geometric Means Day 41/42,[1],100.0%
same,Sheep Body Lice Efficacy Based on Geometric Means Day 84,[1],100.0%
same,Sheep Body Lice Efficacy Based on Geometric Means Day 140,[1],100.0%
same,Sheep Body Lice Efficacy Based on Geometric Means Day 7,[2],94.4%
same,Sheep Body Lice Efficacy Based on Geometric Means Day 14,[2],99.5%
same,Sheep Body Lice Efficacy Based on Geometric Means Day 21,[2],100.0%
same,Sheep Body Lice Efficacy Based on Geometric Means Day 41/42,[2],100.0%
same,Sheep Body Lice Efficacy Based on Geometric Means Day 84,[2],100.0%
same,Sheep Body Lice Efficacy Based on Geometric Means Day 140,[2],100.0%
same,Sheep Body Lice Efficacy Based on Geometric Means Day 7,[3],39.5%
same,Sheep Body Lice Efficacy Based on Geometric Means Day 14,[3],83.1%
same,Sheep Body Lice Efficacy Based on Geometric Means Day 21,[3],98.8%
same,Sheep Body Lice Efficacy Based on Geometric Means Day 41/42,[3],99.9%
same,Sheep Body Lice Efficacy Based on Geometric Means Day 84,[3],100.0%
same,Sheep Body Lice Efficacy Based on Geometric Means Day 140,[3],100.0%
same,time until efficacy reached the required level (no lice detected),"2.0 mg/kg dose rate, all wool lengths except off-shears",≤ 14 days post-treatment
same,Sheep Body Lice Efficacy Based on Geometric Means Day 7,[4],96.7%
same,Sheep Body Lice Efficacy Based on Geometric Means Day 14,[4],100.0%
same,Sheep Body Lice Efficacy Based on Geometric Means Day 21,[4],100.0%
same,Sheep Body Lice Efficacy Based on Geometric Means Day 41/42,[4],100.0%
same,Sheep Body Lice Efficacy Based on Geometric Means Day 84,[4],100.0%
same,Sheep Body Lice Efficacy Based on Geometric Means Day 140,[4],100.0%
same,Sheep Body Lice Efficacy Based on Geometric Means Day 7,[5],96.8%
same,Sheep Body Lice Efficacy Based on Geometric Means Day 14,[5],100.0%
same,Sheep Body Lice Efficacy Based on Geometric Means Day 21,[5],100.0%
same,Sheep Body Lice Efficacy Based on Geometric Means Day 41/42,[5],100.0%
same,Sheep Body Lice Efficacy Based on Geometric Means Day 84,[5],100.0%
same,Sheep Body Lice Efficacy Based on Geometric Means Day 140,[5],100.0%
same,Sheep Body Lice Efficacy Based on Geometric Means Day 7,[6],86.6%
same,Sheep Body Lice Efficacy Based on Geometric Means Day 14,[6],97.1%
same,Sheep Body Lice Efficacy Based on Geometric Means Day 21,[6],99.2%
same,Sheep Body Lice Efficacy Based on Geometric Means Day 41/42,[6],99.4%
same,Sheep Body Lice Efficacy Based on Geometric Means Day 84,[6],99.9%
same,Sheep Body Lice Efficacy Based on Geometric Means Day 140,[6],100.0%
same,viable lice eggs,"1 and 2 mg/kg, all three treatment times, out to 140 days post-treatment",no viable lice eggs were detected
